The text below walks through data of ChEMBL document CHEMBL1201862, “PubChem BioAssay data set” (2004).

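Method: 48-hour compound exposure of cells in 96-well plates, five concentrations, linear interpolation of endpoints. Here, GI50 denotes the concentration required for 50% inhibition of growth.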 Calls of active or inactive are those of the source. Rule as the data show it: active = GI50 up to about 1.1 µM and inactive = higher.

Some test systems named below: SK-OV-3; HOP-62; OVCAR-3; DLD-1; Malme-3M; SF-268; UO-31; UACC-257; UACC-62; HCT-15; A498; NCI-H460; HL-60; SW-620; A549; CAKI-1; BT-549; DU-145; MCF7; MDA-N.
What all share (assay): growth of human tumour cells (NCI), 48 h

In the case of `O=[N+]([O-])c1cccc(C2=NOC(C3CCCCC3)C2)c1` (stereo not given), the GI50 in the test with SK-OV-3, in the test with HOP-62, in the test on OVCAR-3, in the test with DLD-1, with Malme-3M and in the test on SF-268 was > 100 µM (inactive) throughout. For the same compound, the GI50 in the test with UO-31 was > 100 µM (inactive); in the test on UACC-257 it was > 100 µM (inactive); in the test on UACC-62, > 100 µM (inactive); with HCT-15, over 100 µM; with A498, > 100 µM (inactive); in the test with NCI-H460 it was > 100 µM (inactive). Moreover, the GI50 with HL-60, in the test on SW-620 and in the test with A549 was > 100 µM (inactive) each time.
Regarding `CC1=CCC(O)C=CC(C)C(O)C(C)C=C(C)C(=O)c2c(O)c(C)cc3c2C(=O)C(N)=C(NC(=O)/C=C\C=C/C=CC(C)C(O)CC1=O)C3=O` (stereo not given), the GI50 with SK-OV-3 was > 100 µM (inactive); in the test with HOP-62 it was > 100 µM (inactive); in the test with OVCAR-3 it was 64.4 µM (inactive); in the test on DLD-1 it was > 100 µM (inactive); with Malme-3M, 30.1 µM (inactive); in the test with CAKI-1, > 100 µM (inactive). For the same compound, the GI50 in the test on SF-268 was > 100 µM (inactive); in the test with UO-31 it was 63 µM (inactive); with UACC-257, > 100 µM (inactive); in the test with UACC-62 it was > 100 µM (inactive); in the test with HCT-15, over 100 µM; in the test with A498, > 100 µM (inactive). The results for the GI50 in the test with HL-60, in the test on SW-620 and in the test on A549 were 0.292 µM (active), > 100 µM (inactive) and > 100 µM (inactive), respectively.
For `CCCCCCCCCCCCCC(=O)N(CCCCCCCCC)CC(O)C(O)C(OC1OC(CO)C(O)C(O)C1O)C(O)CO` (stereo not given), the GI50 with SK-OV-3 was 14.7 µM (inactive); with HOP-62 it was 24.6 µM (inactive); in the test on OVCAR-3, 26.6 µM (inactive); in the test with BT-549, 22.9 µM (inactive); with Malme-3M, 18.3 µM (inactive); with DU-145 it was 16.5 µM (inactive). In addition, the GI50 was 16.9 µM (inactive) with CAKI-1; 19.1 µM (inactive) with SF-268; 36.5 µM (inactive) in the test on MCF7; 19.1 µM (inactive) in the test on UO-31; 17.1 µM (inactive) in the test with UACC-257; 20.7 µM (inactive) in the test on UACC-62. For the same compound, the GI50 was 23.6 µM in the test on HCT-15; 21.2 µM (inactive) in the test on A498; 20.1 µM (inactive) in the test with NCI-H460; 23.3 µM (inactive) in the test with HL-60; 21.6 µM (inactive) in the test with MDA-N; 19.9 µM (inactive) with SW-620. For the same compound, the GI50 in the test with A549 is 22.3 µM (inactive).
`COc1cc([C@H]2c3cc4c(cc3[C@H](NCc3ccc(F)cc3)C3COC(=O)[C@H]32)OCO4)cc(OC)c1O` (stereo not given in full): the GI50 in the test with SK-OV-3 was 2.87 µM (inactive); in the test with HOP-62, 1.23 µM (inactive); in the test on OVCAR-3, 11.1 µM (inactive); in the test on DLD-1, 7.03 µM (inactive); in the test on Malme-3M, 3.79 µM (inactive); in the test with SF-268, 6.18 µM (inactive). Further, the GI50 in the test on UO-31 is 4.13 µM (inactive); with UACC-257, 14.8 µM (inactive); with UACC-62, 1.56 µM (inactive); with HCT-15 it was 2.29 µM; with A498, 2.19 µM (inactive); in the test with NCI-H460, 0.352 µM (active). Moreover, the values for the GI50 in the test on HL-60 and with SW-620 were 0.815 µM (active) and 1.87 µM (inactive), respectively.
For `CC(=O)c1ccc(NC(=O)C(=O)C(C(=O)c2ccc(Cl)c(Cl)c2)C2OC(=O)c3ccccc32)cc1` (stereo not given), the GI50 was 59.8 µM (inactive) in the test on SK-OV-3; 18.9 µM (inactive) with HOP-62; 16.9 µM (inactive) in the test with OVCAR-3; 23.8 µM (inactive) with DLD-1; 5.97 µM (inactive) in the test on Malme-3M; 14.6 µM (inactive) with CAKI-1. The GI50 with SF-268 is 16.3 µM (inactive); in the test on UO-31, 24.4 µM (inactive); in the test on UACC-257, 23.4 µM (inactive); with UACC-62, 19.4 µM (inactive); in the test on HCT-15 it was 16.8 µM; in the test on A498 it was 16.6 µM (inactive). In addition, the GI50 was 13.2 µM (inactive) in the test on NCI-H460, 28.1 µM (inactive) in the test with HL-60, 21.2 µM (inactive) in the test with SW-620 and 21.4 µM (inactive) in the test with A549.
For the compound `O=C(c1ccccc1)N1CCN2CCN=C(c3ccccc3)C21c1ccccc1` (stereo not given), the GI50 with SK-OV-3 was > 100 µM (inactive); in the test on HOP-62, > 100 µM (inactive); in the test on OVCAR-3 it was 79.1 µM (inactive); with DLD-1, 91 µM (inactive); in the test with Malme-3M it was 35.5 µM (inactive); with UO-31 it was 22.8 µM (inactive). For the same compound, the GI50 in the test on UACC-257 was 25.8 µM (inactive); in the test on UACC-62, 18.1 µM (inactive); with A498, > 100 µM (inactive); in the test with NCI-H460, 94.8 µM (inactive); in the test with HL-60, 19.2 µM (inactive); with SW-620, > 100 µM (inactive). Moreover, the GI50 in the test on A549 was 95.3 µM (inactive).
With `CN(C)c1ccc(/C=C2\CCc3ccccc3C2=O)cc1Br`, the GI50 in the test on SK-OV-3 is > 100 µM (inactive); with HOP-62, > 100 µM (inactive); with OVCAR-3 it was 49 µM (inactive); in the test with DLD-1, 55.5 µM (inactive); in the test on Malme-3M, 42.8 µM (inactive); in the test with CAKI-1, 36.4 µM (inactive). The GI50 in the test with SF-268 was 65 µM (inactive); in the test on UO-31, > 100 µM (inactive); with UACC-257, 43.6 µM (inactive); with UACC-62, 40.2 µM (inactive); in the test on HCT-15, 71.1 µM; with NCI-H460, > 100 µM (inactive). Also, the GI50 in the test on HL-60 was 21.2 µM (inactive); in the test on SW-620 it was 34.2 µM (inactive); in the test on A549 it was 51.3 µM (inactive).
Regarding `Cc1c2n(c(=O)[nH]c1=O)C1OC(CO)C(O2)C1N=[N+]=[N-]` (stereo not given), the GI50 with SK-OV-3, in the test with HOP-62, with OVCAR-3, in the test with DLD-1, with CAKI-1 and in the test on SF-268 was > 100 µM (inactive) in each case. The GI50 in the test on UO-31 is > 100 µM (inactive); in the test on UACC-257 it was > 100 µM (inactive); with UACC-62, > 100 µM (inactive); in the test with HCT-15, over 100 µM; with A498 it was 78 µM (inactive); in the test on NCI-H460, > 100 µM (inactive). The GI50 with HL-60, with SW-620 and in the test with A549 was > 100 µM (inactive) each time.
For the compound `COc1ccc(C2S/C(=C\c3cccc(OC)c3)C(=O)N2NC(=O)Cc2ccccc2)cc1` (stereo not given), the GI50 in the test on SK-OV-3, with HOP-62, in the test on DLD-1, with Malme-3M, in the test on CAKI-1 and in the test with SF-268 was > 100 µM (inactive) in each case. Besides, the GI50 with UO-31 was > 100 µM (inactive); in the test on UACC-257 it was > 100 µM (inactive); in the test on UACC-62, > 100 µM (inactive); in the test with HCT-15 it was over 100 µM; in the test with A498, > 100 µM (inactive); with NCI-H460 it was > 100 µM (inactive). Besides, the GI50 with HL-60, in the test with SW-620 and in the test with A549 was > 100 µM (inactive) each time.
Consider `CC(C)(CN1CCCCC1)C(=O)CC(SCCN)c1ccc(Cl)cc1` (stereo not given), for which the GI50 is 2.6 µM (inactive) in the test on SK-OV-3; 3.78 µM (inactive) in the test with HOP-62; 1.55 µM (inactive) in the test on OVCAR-3; 1.59 µM (inactive) in the test with DLD-1; 3.1 µM (inactive) in the test on Malme-3M; 1.71 µM (inactive) with CAKI-1. Moreover, the GI50 with SF-268 is 2.78 µM (inactive); in the test with UO-31 it was 3.35 µM (inactive); in the test on UACC-257, 2.09 µM (inactive); in the test with UACC-62, 1.65 µM (inactive); in the test with HCT-15 it was 1.63 µM; in the test with A498, 2.32 µM (inactive). Further, the GI50 was 2.11 µM (inactive) with NCI-H460, 1.76 µM (inactive) in the test on SW-620 and 2.88 µM (inactive) in the test on A549.
Consider `O=[N+]([O-])c1ccc(Sc2c3ccccc3nc3ccccc23)cc1`, for which the GI50 with HOP-62, in the test with OVCAR-3, in the test on DLD-1, in the test on Malme-3M, in the test on CAKI-1 and in the test on SF-268 was > 100 µM (inactive) throughout. The GI50 with UO-31 is > 100 µM (inactive); with UACC-257, > 100 µM (inactive); with UACC-62, > 100 µM (inactive); with HCT-15 it was over 100 µM; in the test on NCI-H460, > 100 µM (inactive); in the test on HL-60 it was 46.5 µM (inactive). Besides, the GI50 in the test with SW-620 and with A549 was > 100 µM (inactive) each time.
Take `CC(CN(C)C)C(=O)c1ccccc1` (stereo not given): the GI50 is > 100 µM (inactive) in the test on HOP-62; 42.4 µM (inactive) in the test with OVCAR-3; 8.97 µM (inactive) in the test on DLD-1; 24.3 µM (inactive) in the test with Malme-3M; 3.43 µM (inactive) in the test on CAKI-1; 30.3 µM (inactive) in the test on SF-268. The GI50 was > 31.6 µM (inactive) in the test on UO-31; > 48.6 µM (inactive) in the test on UACC-257; 35.8 µM (inactive) with UACC-62; 16.6 µM with HCT-15; > 46.1 µM (inactive) in the test on A498; > 78.7 µM (inactive) in the test with NCI-H460. Also, the GI50 is 15.9 µM (inactive) with HL-60, 12.9 µM (inactive) in the test with SW-620 and > 65.3 µM (inactive) in the test with A549.
As to `O=C1/C(=C/c2ccccc2)CN(C(=O)C(F)(F)F)C/C1=C\c1ccccc1`, the GI50 is 11.5 µM (inactive) in the test on HOP-62; 3.25 µM (inactive) in the test with OVCAR-3; 2.07 µM (inactive) with DLD-1; 3.72 µM (inactive) in the test with Malme-3M; 3.94 µM (inactive) in the test on SF-268; 2.18 µM (inactive) in the test with UO-31. For the same compound, the GI50 is 1.66 µM (inactive) in the test with UACC-257; 1.84 µM (inactive) in the test on UACC-62; 2.03 µM in the test on HCT-15; 1.98 µM (inactive) with A498; 1.56 µM (inactive) in the test on NCI-H460; 0.733 µM (active) in the test on HL-60. In addition, the GI50 was 0.48 µM (active) in the test on SW-620 and 3.17 µM (inactive) with A549.
